From PubChem BioAssay AID248 (DTP/NCI, 2004)
“And” between values parts separate entries of the source, which are not always exact repeats. Equal entries are not always repeated. Inconclusive results and toxic doses are left out. Rule as the data show it: active = T/C of 150% or more; inactive = T/C below 125%.

Test system: L1210 leukemia ip in BDF1 mice, survival T/C
Assay: NCI In Vivo Anticancer Drug Screen. Data for tumor model L1210 Leukemia (intraperitoneal) in B6D2F1 (BDF1) mice
Settings: endpoint: mean survival time, higher = longer survival
Outline: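 Each compound was tested against a transplantable tumor grown in mice. The endpoint was survival, with treated animals benchmarked against vehicle controls as a simple ratio.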

[1] = dose: 100.0 mg/kg/injection, schedule: Q01DX001 (ip), vehicle: Klucel (hydroxypropylcellulose) (HPC)
[2] = dose: 200.0 mg/kg/injection, schedule: Q01DX001 (ip), vehicle: Klucel (hydroxypropylcellulose) (HPC)
[3] = dose: 50.0 mg/kg/injection, schedule: Q01DX009 (ip), vehicle: saline with Tween-80
[4] = dose: 100.0 mg/kg/injection, schedule: Q01DX001 (ip), vehicle: saline with Tween-80
[5] = dose: 200.0 mg/kg/injection, schedule: Q01DX001 (ip), vehicle: saline with Tween-80
[6] = dose: 400.0 mg/kg/injection, schedule: Q01DX001 (ip), vehicle: saline with Tween-80
[7] = dose: 50.0 mg/kg/injection, schedule: Q01DX001 (ip), vehicle: saline
[8] = dose: 100.0 mg/kg/injection, schedule: Q01DX001 (ip), vehicle: saline
[9] = dose: 200.0 mg/kg/injection, schedule: Q01DX001 (ip), vehicle: saline
[10] = dose: 400.0 mg/kg/injection, schedule: Q01DX001 (ip), vehicle: saline
[11] = dose: 100.0 mg/kg/injection, schedule: Q01DX009 (ip), vehicle: Klucel (hydroxypropylcellulose) (HPC)
[12] = dose: 200.0 mg/kg/injection, schedule: Q01DX009 (ip), vehicle: Klucel (hydroxypropylcellulose) (HPC)
[13] = dose: 100.0 mg/kg/injection, schedule: Q04DX003 (ip), vehicle: saline with Tween-80
[14] = dose: 200.0 mg/kg/injection, schedule: Q04DX003 (ip), vehicle: saline with Tween-80
[15] = dose: 400.0 mg/kg/injection, schedule: Q04DX003 (ip), vehicle: saline with Tween-80

Measured: T/C

CN(C1=CC(=O)C(=O)c2ccccc21)c1ccccc1
inactive: dose: 50.0 mg/kg/injection, schedule: Q01DX001 (ip), vehicle: Klucel (hydroxypropylcellulose) (HPC) 95 % of control | [1] 97 % of control | [2] 97 % of control

O=C(NC1CSSC1)C(Cc1ccccc1)N1C(=O)c2ccccc2C1=O (stereo not drawn)
inactive: dose: 6.25 mg/kg/injection, schedule: Q01DX009 (ip), vehicle: water 94 % of control | dose: 12.5 mg/kg/injection, schedule: Q01DX009 (ip), vehicle: water 96 % of control | dose: 25.0 mg/kg/injection, schedule: Q01DX009 (ip), vehicle: water 107 % of control | dose: 50.0 mg/kg/injection, schedule: Q01DX009 (ip), vehicle: water 96 % of control and 88 % of control | dose: 100.0 mg/kg/injection, schedule: Q01DX009 (ip), vehicle: water 87 % of control and 91 % of control | dose: 200.0 mg/kg/injection, schedule: Q01DX009 (ip), vehicle: water 98 % of control | dose: 400.0 mg/kg/injection, schedule: Q01DX009 (ip), vehicle: water 96 % of control

OC12c3ccccc3C1(c1ccccn1)c1ccccc12 (stereo not drawn)
inactive: dose: 100.0 mg/kg/injection, schedule: Q01DX009 (ip), vehicle: gum acacia 98 % of control | dose: 100.0 mg/kg/injection, schedule: Q04DX003 (ip), vehicle: gum acacia 98 % of control | dose: 200.0 mg/kg/injection, schedule: Q01DX009 (ip), vehicle: gum acacia 96 % of control | dose: 200.0 mg/kg/injection, schedule: Q04DX003 (ip), vehicle: gum acacia 98 % of control | dose: 400.0 mg/kg/injection, schedule: Q01DX009 (ip), vehicle: gum acacia 100 % of control | dose: 400.0 mg/kg/injection, schedule: Q04DX003 (ip), vehicle: gum acacia 103 % of control

COc1cc2c(cc1OC)-c1cc3cc(OC)c(OC)cc3c(CCC(=O)O)[n+]1CC2
inactive: dose: 20.0 mg/kg/injection, schedule: Q04DX002 (ip), vehicle: Klucel (hydroxypropylcellulose) (HPC) 95 % of control | dose: 40.0 mg/kg/injection, schedule: Q04DX002 (ip), vehicle: Klucel (hydroxypropylcellulose) (HPC) 88 % of control | dose: 80.0 mg/kg/injection, schedule: Q04DX002 (ip), vehicle: Klucel (hydroxypropylcellulose) (HPC) 109 % of control

OC1CCCCC1(c1ccccc1)c1ccccc1 (stereo not drawn)
inactive: [3] 94 % of control | dose: 100.0 mg/kg/injection, schedule: Q01DX009 (ip), vehicle: saline with Tween-80 91 % of control | dose: 200.0 mg/kg/injection, schedule: Q01DX009 (ip), vehicle: saline with Tween-80 91 % of control

O=C1CCC23/C=C/C(=O)NCCCCNCCCNC(=O)/C=C/c4ccc(c2c4)OC3C1 (stereo not drawn)
inactive: [4] 101 % of control | [5] 95 % of control | [6] 91 % of control

CCC1(CCC(C)C)C(=O)NC(=S)N(C)C1=O (stereo not drawn)
inactive: dose: 75.0 mg/kg/injection, schedule: Q01DX001 (ip), vehicle: carboxymethylcellulose (CMC) 89 % of control | dose: 75.0 mg/kg/injection, schedule: Q01DX001 (ip), vehicle: other 97 % of control | dose: 150.0 mg/kg/injection, schedule: Q01DX001 (ip), vehicle: carboxymethylcellulose (CMC) 89 % of control | dose: 150.0 mg/kg/injection, schedule: Q01DX001 (ip), vehicle: other 103 % of control | dose: 300.0 mg/kg/injection, schedule: Q01DX001 (ip), vehicle: carboxymethylcellulose (CMC) 91 % of control | dose: 300.0 mg/kg/injection, schedule: Q01DX001 (ip), vehicle: other 121 % of control

COc1ccccc1CN1CCCN(Cc2ccccc2OC)C1c1ccccc1
inactive: [7] 101 % of control | [8] 109 % of control | [9] 90 % of control | [10] 90 % of control

CCC(C)NNCCO (stereo not drawn)
inactive: [7] 97 % of control | [8] 103 % of control | [9] 100 % of control

NC(C(=O)O)c1ccccc1Cl (stereo not drawn)
inactive: dose: 50.0 mg/kg/injection, schedule: Q01DX009 (ip), vehicle: Klucel (hydroxypropylcellulose) (HPC) 95 % of control | [1] 92 % of control | [11] 101 % of control | [2] 102 % of control | [12] 107 % of control | dose: 400.0 mg/kg/injection, schedule: Q01DX001 (ip), vehicle: Klucel (hydroxypropylcellulose) (HPC) 91 % of control

CCN(CC)CCCOC(=O)N(Cc1ccc(Cl)cc1)C1CC1
inactive: dose: 25.0 mg/kg/injection, schedule: Q01DX009 (ip), vehicle: saline with Tween-80 100 % of control | [3] 93 % of control | [13] 102 % of control

O=C(O)Cc1ccc(Cl)cc1Cl
inactive: dose: 50.0 mg/kg/injection, schedule: Q04DX003 (ip), vehicle: Klucel (hydroxypropylcellulose) (HPC) 93 % of control | dose: 100.0 mg/kg/injection, schedule: Q04DX003 (ip), vehicle: Klucel (hydroxypropylcellulose) (HPC) 98 % of control | dose: 200.0 mg/kg/injection, schedule: Q04DX003 (ip), vehicle: Klucel (hydroxypropylcellulose) (HPC) 98 % of control

c1ccc(C2=NCC3(CCCC3)N=C2c2ccccc2)cc1
inactive: dose: 100.0 mg/kg/injection, schedule: Q01DX009 (ip), vehicle: saline 101 % of control | dose: 100.0 mg/kg/injection, schedule: Q04DX003 (ip), vehicle: saline 97 % of control | dose: 200.0 mg/kg/injection, schedule: Q01DX009 (ip), vehicle: saline 91 % of control | dose: 200.0 mg/kg/injection, schedule: Q04DX003 (ip), vehicle: saline 90 % of control | dose: 400.0 mg/kg/injection, schedule: Q01DX009 (ip), vehicle: saline 100 % of control | dose: 400.0 mg/kg/injection, schedule: Q04DX003 (ip), vehicle: saline 92 % of control

Cc1ccc(C(=O)c2sc(Nc3cccc(C(F)(F)F)c3)c(C#N)c2N)c(C)c1
inactive: dose: 100.0 mg/kg/injection, schedule: Q04DX002 (ip), vehicle: saline with Tween-80 95 % of control | dose: 200.0 mg/kg/injection, schedule: Q04DX002 (ip), vehicle: saline with Tween-80 87 % of control | dose: 400.0 mg/kg/injection, schedule: Q04DX002 (ip), vehicle: saline with Tween-80 91 % of control

O=S(=O)(OCC1CO1)c1ccc(Cl)cc1 (stereo not drawn)
inactive: dose: 100.0 mg/kg/injection, schedule: Q01DX008 (ip), vehicle: Klucel (hydroxypropylcellulose) (HPC) 101 % of control | dose: 200.0 mg/kg/injection, schedule: Q01DX008 (ip), vehicle: Klucel (hydroxypropylcellulose) (HPC) 108 % of control | dose: 400.0 mg/kg/injection, schedule: Q01DX008 (ip), vehicle: Klucel (hydroxypropylcellulose) (HPC) 108 % of control

Nc1cc2ccccc2c(Br)n1
inactive: [4] 110 % of control | dose: 100.0 mg/kg/injection, schedule: Q01DX009 (ip), vehicle: saline sonified 98 % of control | [5] 105 % of control | dose: 200.0 mg/kg/injection, schedule: Q01DX009 (ip), vehicle: saline sonified 93 % of control | [6] 100 % of control | dose: 400.0 mg/kg/injection, schedule: Q01DX009 (ip), vehicle: saline sonified 98 % of control

O=C1C2C3C=CC(C3)C2C(=O)N1c1ccccc1 (stereo not drawn)
inactive: [13] 96 % of control | [14] 101 % of control | [15] 107 % of control

O=C(N/N=C/c1ccccc1Cl)c1cccc2ccccc12
inactive: [8] 92 % of control | [9] 101 % of control | [10] 103 % of control

CCCCCCCCCCCCC(O)C(O)CCCCCCCC(=O)O (stereo not drawn)
inactive: [11] 94 % of control | [12] 93 % of control | dose: 400.0 mg/kg/injection, schedule: Q01DX009 (ip), vehicle: Klucel (hydroxypropylcellulose) (HPC) 93 % of control

CSc1nnc(SC)s1
inactive: [13] 104 % of control | [14] 93 % of control | [15] 93 % of control

Cc1ccc(NC(C(=O)c2ccccc2)c2ccccc2)cc1 (stereo not drawn)
inactive: dose: 300.0 mg/kg/injection, schedule: Q01DX Z (ip), vehicle: carboxymethylcellulose (CMC) 97 % of control | dose: 450.0 mg/kg/injection, schedule: Q01DX Z (ip), vehicle: carboxymethylcellulose (CMC) 103 % of control | dose: 675.0 mg/kg/injection, schedule: Q01DX Z (ip), vehicle: carboxymethylcellulose (CMC) 107 % of control
